Experimental findings from US12492173B2, “Herbicidal substituted N-tetrazolyl aryl carboxamides” (Bayer Aktiengesellschaft, priority 2019, dated 2025) are described below.

In the first experiment the test system is Setaria viridis. Kind of experiment: Pre-emergence herbicidal action, SETVI. It counts as in vivo. Particulars: dosage 320 g/ha, scored visually after 3 weeks vs untreated controls (100% = plants have died). A digest of the protocol: (§1)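 Seeds sown in sandy loam in pots and covered with soil; compounds formulated as WP or EC were sprayed onto the soil surface as aqueous suspension/emulsion at 600 to 800 l/ha water with 0.2% wetting agent. Greenhouse growth; visual damage scored after 3 weeks versus untreated controls (100% = plants died, 0% = like control).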
Take `CCSCc1c(C(F)F)ccc(C(=O)Nc2nnnn2C)c1SCC` [Example 1-191]: the “herbicidal activity SETVI” value is 100%.
The same measure, in the same setting: then `CCn1nnnc1NC(=O)c1ccc(C(F)(F)F)c(CS(C)(=O)=O)c1OC` [Example 2-136], with 80%; and `CCn1nnnc1NC(=O)c1ccc(C(F)(F)F)c(C[S+](C)[O-])c1OC` (stereo not shown) [Example 2-135], with 100%; and `Cn1nnnc1NC(=O)c1ccc(Cl)c(CS(C)(=O)=O)c1Cl` [Example 1-561], with 100%.

For the next experiment, the system named is Pharbitis purpurea. Put plainly: Post-emergence herbicidal action, PHBPU. In kind it is in vivo. The note with it: Dosage 80 g/ha. A digest of the protocol:
(§2)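 One-leaf-stage weeds, raised from seed in greenhouse sandy loam, received a single foliar spray of compound as wettable powder or emulsion concentrate with 0.2% wetting agent added. Growth continued under optimal conditions for about 3 weeks before percent damage was scored by eye against controls.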
On to `CCSCc1c(C(F)F)ccc(C(=O)Nc2nnnn2C)c1SCC` [Example 1-191], for which the “herbicidal action PHBPU” value is given as 80.
For the compound `CCn1nnnc1NC(=O)c1ccc(C(F)(F)F)c(CS(C)(=O)=O)c1OC` [Example 2-136], the “herbicidal action PHBPU” value came to 90.
For `CCn1nnnc1NC(=O)c1ccc(C(F)(F)F)c(C[S+](C)[O-])c1OC` (stereo not shown) [Example 2-135], the “herbicidal action PHBPU” value is on record as 100.
Same read-out and setting: then `Cn1nnnc1NC(=O)c1ccc(Cl)c(CS(C)(=O)=O)c1Cl` [Example 1-561], with 100.

Another experiment has as its system Stellaria media. Kind of experiment: Pre-emergence herbicidal action, STEME. Particulars: dosage 320 g/ha, scored visually after 3 weeks vs untreated controls (100% = plants have died). In kind it is in vivo. In short, it runs like this: as §1
Regarding `CCSCc1c(C(F)F)ccc(C(=O)Nc2nnnn2C)c1SCC` [Example 1-191], the “herbicidal activity STEME” value came to 100%.
Take `CCn1nnnc1NC(=O)c1ccc(C(F)(F)F)c(CS(C)(=O)=O)c1OC` [Example 2-136]: the “herbicidal activity STEME” value was determined as 100%.
Still for that read-out and setting: then `CCn1nnnc1NC(=O)c1ccc(C(F)(F)F)c(C[S+](C)[O-])c1OC` (stereo not shown) [Example 2-135], with 90%.
For `Cn1nnnc1NC(=O)c1ccc(Cl)c(CS(C)(=O)=O)c1Cl` [Example 1-561], the “herbicidal activity STEME” value was 90%.

For a further experiment, the system named is Matricaria inodora. Put plainly: Pre-emergence herbicidal action, MATIN. It counts as in vivo. The note with it: dosage 320 g/ha, scored visually after 3 weeks vs untreated controls (100% = plants have died). In short, it runs like this: as §1
Consider `CCSCc1c(C(F)F)ccc(C(=O)Nc2nnnn2C)c1SCC` [Example 1-191], for which the “herbicidal activity MATIN” value is given as 100%.
With `CCn1nnnc1NC(=O)c1ccc(C(F)(F)F)c(CS(C)(=O)=O)c1OC` [Example 2-136], the “herbicidal activity MATIN” value worked out at 100%.
Consider `CCn1nnnc1NC(=O)c1ccc(C(F)(F)F)c(C[S+](C)[O-])c1OC` (stereo not shown) [Example 2-135], for which the “herbicidal activity MATIN” value was 100%.
In the case of `Cn1nnnc1NC(=O)c1ccc(Cl)c(CS(C)(=O)=O)c1Cl` [Example 1-561], the “herbicidal activity MATIN” value was determined as 90%.

The subject of another experiment is Stellaria media. Put plainly: Post-emergence herbicidal action, STEME. In kind it is in vivo. Further details: key: % herbicidal action vs untreated; 100 = plants died, 0 = like control. Particulars: Dosage 80 g/ha. A digest of the protocol: as §2
Turning to `CCSCc1c(C(F)F)ccc(C(=O)Nc2nnnn2C)c1SCC` [Example 1-191], the “herbicidal action STEME” value worked out at 100.
Turning to `CCn1nnnc1NC(=O)c1ccc(C(F)(F)F)c(CS(C)(=O)=O)c1OC` [Example 2-136], the “herbicidal action STEME” value was 100.
As for `CCn1nnnc1NC(=O)c1ccc(C(F)(F)F)c(C[S+](C)[O-])c1OC` (stereo not shown) [Example 2-135], the “herbicidal action STEME” value amounted to 100.
Same read-out and setting: then `Cn1nnnc1NC(=O)c1ccc(Cl)c(CS(C)(=O)=O)c1Cl` [Example 1-561], with 100.

In another experiment the test system is Abutilon theophrasti. Kind of experiment: Pre-emergence herbicidal action, ABUTH. Particulars: dosage 320 g/ha, scored visually after 3 weeks vs untreated controls (100% = plants have died). In kind it is in vivo. A digest of the protocol: as §1
For `CCSCc1c(C(F)F)ccc(C(=O)Nc2nnnn2C)c1SCC` [Example 1-191], the “herbicidal activity ABUTH” value is given as 100%.
Same read-out and setting: then `CCn1nnnc1NC(=O)c1ccc(C(F)(F)F)c(CS(C)(=O)=O)c1OC` [Example 2-136], with 100%; and `CCn1nnnc1NC(=O)c1ccc(C(F)(F)F)c(C[S+](C)[O-])c1OC` (stereo not shown) [Example 2-135], with 100%; and `Cn1nnnc1NC(=O)c1ccc(Cl)c(CS(C)(=O)=O)c1Cl` [Example 1-561], with 100%.

Another experiment deals with Polygonum convolvulus. Kind of experiment: Pre-emergence herbicidal action, POLCO. In kind it is in vivo. The note with it: dosage 320 g/ha, scored visually after 3 weeks vs untreated controls (100% = plants have died). In short, it runs like this: as §1
As to `CCSCc1c(C(F)F)ccc(C(=O)Nc2nnnn2C)c1SCC` [Example 1-191], the “herbicidal activity POLCO” value came out at 100%.
`CCn1nnnc1NC(=O)c1ccc(C(F)(F)F)c(CS(C)(=O)=O)c1OC` [Example 2-136]: the “herbicidal activity POLCO” value is reported as 100%.
As for `CCn1nnnc1NC(=O)c1ccc(C(F)(F)F)c(C[S+](C)[O-])c1OC` (stereo not shown) [Example 2-135], the “herbicidal activity POLCO” value worked out at 90%.
In the case of `Cn1nnnc1NC(=O)c1ccc(Cl)c(CS(C)(=O)=O)c1Cl` [Example 1-561], the “herbicidal activity POLCO” value came out at 100%.
